Test results taken from PMC6825221, “In silico re-engineering of a neurotransmitter to activate KCNQ potassium channels in an isoform-specific manner” (Communications Biology, 2019).

Assays:
Type in all cases: cell-based
[1] = target: T1, KCNQ3*-R242A (Homo sapiens, UniProt O43525, A315T/R242A); experiment: TEVC of homomeric KCNQ3*-R242A; settings: 100 µM
T1 sequence (O43525 1-872 R242A/A315T): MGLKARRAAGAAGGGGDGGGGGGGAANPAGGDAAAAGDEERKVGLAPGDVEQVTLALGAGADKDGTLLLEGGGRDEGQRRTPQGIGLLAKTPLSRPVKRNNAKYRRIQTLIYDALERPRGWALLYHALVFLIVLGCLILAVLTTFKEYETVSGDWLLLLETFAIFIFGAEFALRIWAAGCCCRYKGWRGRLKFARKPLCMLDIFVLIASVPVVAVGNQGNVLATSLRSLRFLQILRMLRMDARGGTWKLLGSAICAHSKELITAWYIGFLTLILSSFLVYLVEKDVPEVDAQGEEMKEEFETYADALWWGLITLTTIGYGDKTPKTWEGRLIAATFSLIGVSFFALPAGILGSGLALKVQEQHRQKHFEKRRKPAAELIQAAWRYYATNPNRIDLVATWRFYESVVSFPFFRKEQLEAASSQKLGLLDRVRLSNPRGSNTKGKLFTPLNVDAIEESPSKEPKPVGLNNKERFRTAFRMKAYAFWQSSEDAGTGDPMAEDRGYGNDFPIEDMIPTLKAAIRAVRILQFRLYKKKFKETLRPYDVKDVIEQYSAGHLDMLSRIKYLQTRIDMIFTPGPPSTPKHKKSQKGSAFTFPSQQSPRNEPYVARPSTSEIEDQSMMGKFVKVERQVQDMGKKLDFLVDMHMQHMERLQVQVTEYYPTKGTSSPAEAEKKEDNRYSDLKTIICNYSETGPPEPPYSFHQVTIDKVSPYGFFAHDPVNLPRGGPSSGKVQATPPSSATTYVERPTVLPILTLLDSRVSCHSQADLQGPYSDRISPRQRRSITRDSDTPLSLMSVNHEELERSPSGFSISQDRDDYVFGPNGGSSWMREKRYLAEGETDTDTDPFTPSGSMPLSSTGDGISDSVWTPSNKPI
Excerpt: (§1) We generated cRNA transcripts encoding human KCNQ1, KCNQ2, KCNQ3, KCNQ4, KCNQ5 or GLRA1 (NM_001146040) (GenScript, Piscataway, NJ, USA) by in vitro transcription using the T7 polymerase mMessage mMachine kit (Thermo Fisher Scientific), after vector linearization, from cDNA sub-cloned into plasmids incorporating Xenopus laevis β-globin 5′ and 3′ UTRs flanking the coding region to enhance translation and cRNA stability. We quantified cRNA by spectrophotometry. We generated mutant KCNQ2 and KCNQ3 cDNAs by site-directed mutagenesis using a QuikChange kit (Stratagene, San Diego, CA) and prepared the corresponding cRNAs as above. […]
(§2) We performed TEVC at room temperature using an OC-725C amplifier (Warner Instruments, Hamden, CT) and pClamp10 software (Molecular Devices, Sunnyvale, CA) 2–5 days after cRNA injection as described in the section above. […] Currents were recorded in response to voltage pulses between −120 or −80 mV and + 40 mV at 20 mV intervals from a holding potential of −80 mV, to yield current-voltage relationships, current magnitude, and for quantifying activation rate. We analyzed data using Clampfit (Molecular Devices) and Graphpad Prism software (GraphPad, San Diego, CA, USA); values are stated as mean ± SEM. […]

[2] = target: KCNQ2 (Homo sapiens, UniProt O43526); experiment: Relative ion permeability of KCNQ2; design: dose or concentration left out as unconfirmed
Excerpt: According to the Goldman–Hodgkin–Katz (GHK) voltage equation:2 Erev=RT∕Fln(PK[K^+]O+PNa[Na]O+PCl[Cl]i)/(PK[K^+]i+PNa[Na]i+PCl[Cl]o), where Erev is the absolute reversal potential and P is permeability. This permits calculation of the relative permeability of each ion if concentrations on either side of the membrane are known. A modified version of this equation was used here to determine relative permeability of two ions in a system in which only the extracellular ion concentration was known. Thus, relative permeability of Rb^+, Cs^+, and Na^+ compared to K^+ ions was calculated for KCNQ2 and KCNQ3* by plotting the I/V relationships for each channel with each extracellular ion (100 mM) (using the voltage protocol shown in Fig. 9g) and comparing them to that with 100 mM extracellular K^+ ion to yield a change in reversal potential (ΔErev) for each ion compared to that of K^+. Permeability ratios for each ion (X) compared to K^+ were then calculated as3 ΔErev=Erev,X−Erev,K=lnPX/PK. […]

[3] = target: KCNQ3* (Homo sapiens, UniProt O43525, A315T); experiment: TEVC of homomeric KCNQ3* (A315T KCNQ3 mutant) expressed in Xenopus oocytes
Excerpt: We next validated the in silico predictions using two-electrode voltage clamp of homomeric neuronal KCNQ2-5 channel isoforms expressed in Xenopus laevis oocytes. […] As in previous studies[8],[10], we used the A315T KCNQ3 mutant (KCNQ3*) that ensures large enough currents to accurately quantify voltage dependence and pharmacology of homomeric KCNQ3[16].
(§3) We generated cRNA transcripts encoding human KCNQ1, KCNQ2, KCNQ3, KCNQ4, KCNQ5 or GLRA1 (NM_001146040) (GenScript, Piscataway, NJ, USA) by in vitro transcription using the T7 polymerase mMessage mMachine kit (Thermo Fisher Scientific), after vector linearization, from cDNA sub-cloned into plasmids incorporating Xenopus laevis β-globin 5′ and 3′ UTRs flanking the coding region to enhance translation and cRNA stability. We quantified cRNA by spectrophotometry. We generated mutant KCNQ2 and KCNQ3 cDNAs by site-directed mutagenesis using a QuikChange kit (Stratagene, San Diego, CA) and prepared the corresponding cRNAs as above. We injected defolliculated stage V and VI Xenopus laevis oocytes (Ecocyte Bioscience, Austin, TX and Xenoocyte, Dexter, MI) with KCNQ channel α subunit (5-20 ng) or GLRA1 (20 ng) cRNAs. We incubated the oocytes at 16 °C in Barth’s saline solution (Ecocyte Bioscience) containing penicillin and streptomycin, with daily washing, for 2–5 days prior to two-electrode voltage-clamp (TEVC) recording.
(§4) We performed TEVC at room temperature using an OC-725C amplifier (Warner Instruments, Hamden, CT) and pClamp10 software (Molecular Devices, Sunnyvale, CA) 2–5 days after cRNA injection as described in the section above. For recording, oocytes were placed in a small-volume oocyte bath (Warner) and viewed them with a dissection microscope. Chemicals were sourced from Sigma, Matrix Scientific and Santa Cruz. […] All stock solutions were diluted in bath solution on the day of experiments. KCNQ2/3 channel activation was screened for using either 30 µM or 100 µM concentrations of each of the six compounds, then dose responses were conducted as appropriate. Bath solution was (in mM): 96 NaCl, 4 KCl, 1 MgCl2, 1 CaCl2, 10 HEPES (pH 7.6). Compounds were introduced into the oocyte recording bath by gravity perfusion at a constant flow of 1 ml per minute for 3 min prior to recording. Pipettes were of 1–2 MΩ resistance when filled with 3 M KCl. Currents were recorded in response to voltage pulses between −120 or −80 mV and + 40 mV at 20 mV intervals from a holding potential of −80 mV, to yield current-voltage relationships, current magnitude, and for quantifying activation rate. We analyzed data using Clampfit (Molecular Devices) and Graphpad Prism software (GraphPad, San Diego, CA, USA); values are stated as mean ± SEM. […]

[4] = target: KCNQ3*-W265L (Homo sapiens, UniProt O43525, A315T/W265L); experiment: TEVC of homomeric KCNQ3*-W265L
Excerpt: as §1, §2

[5] = target: KCNQ5 (Homo sapiens, UniProt Q9NR82); experiment: TEVC of homomeric KCNQ5 expressed in Xenopus oocytes; settings: read-out: EC50, KCNQ5 activation
Excerpt: as §3
as §4, with “Bath solution was (in mM): 96 NaCl, 4 KCl, 1 MgCl2, 1 CaCl2, 10 HEPES (pH 7.6). Compounds were introduced into the oocyte recording bath by gravity perfusion at a constant flow of 1 ml per minute for 3 min prior to recording. Pipettes were of 1–2 MΩ resistance when filled with 3 M KCl.” left out

- effect on nonfunctional KCNQ3*-R242A [1]: awakened neither by 3FMSG nor retigabine
- relative Na+ permeability (compared to K+) of KCNQ2 [2]: not KCNQ2
- EC50 ([3]; ΔV0.5act, read-out: EC50, KCNQ3* activation): 0.018 ± 0.012 µM
- maximal efficacy, KCNQ3*-W265L versus KCNQ3* [4]: reduced by half
- reduction of sensitivity by the W265L mutation versus KCNQ3* [4]: 44 fold
- EC50 [5]: 0.171 ± 0.112 µM
Structure (SMILES): CS(=O)(=O)N(CC(=O)O)c1cccc(F)c1 [3FMSG]
- KCNQ3* activation and deactivation rates ([3]; 100 µM): speeded activation and slowed deactivation
